In patent publication US20050249857A1, “Lignan complexes” (priority 2002, published 2005):
Converted amounts (≈) assume the structure as drawn. Like-named read-outs stand apart in the source and are kept apart here.

What was measured:
[1] = Chemical stability of HMR in acetate buffer with and without 2% γ-CD; assay type: physicochemical; conditions: for First-order rate constant kobs for chemical degradation / shelf-life t90% for chemical degradation: 0.16 M acetate buffer pH 5.0, 30° C.; for half-life: acetate buffer, pH 5, 0.16 M acetate buffer pH 5.0, 30° C., read-out: half-life t1/2 for chemical degradation (converted)
Procedure: All the solutions were prepared by dissolving 1.5-2.0 mg of HMR into 20 ml of the solutions mentioned above, and the concentration of the remaining HMR was determined at appropriate intervals by HPLC. The pseudo-first order rate constant for overall degradation of HMR was determined from the slopes of the linear semilogarithmic plots of remaining HMR versus time. The results of the stability studies were calculated as an average of three determinations.

physchem = conditions: 25 °C, pH 5, aqueous buffer, thermodynamic from solid
Procedure: (§1) The samples from the solubility and stability studies were analysed by using the HPLC system which consist of the UV-detector (L-7400), interface module (D-7000), pump (L-7100) and autosampler (L-7250, Merck Hitachi, Japan). Purospher® reversed phase column (RP-18e, 5 μm, 125×4 mm) was used in all chromatographic separations.
(§2) An excess amount of lignan or lignan ester was added to acetate buffer (0.16 M; pH 5.0; ionic strength 0.5) containing various concentrations of γ-CD (0-10%). The suspensions were shaken in the dark (25° C.) for 24 hour and the pH of the suspensions were monitored during the equilibration. The pH of suspensions was adjusted to 5.0 with HCl or NaOH if necessary. After equilibration, the suspensions were filtered through 0.45 μm membrane filters and analysed by HPLC.

[2] = Phase-solubility study of HMR with HP-β-CD; assay type: physicochemical; conditions: for solubility at 72 h: acetate buffer, 25 °C, thermodynamic from solid, 0.16 M acetate buffer pH 5.0, μ = 0.5, 25° C., equilibration 72 hours
Procedure: The phase solubility studies with HMR was also performed with HP-β-CD (0-10%). In the case of HP-β-CD the equilibration time was 72 hours.

[3] = Phase-solubility study with γ-CD (Higuchi and Connors); conditions: 0.16 M acetate buffer pH 5.0, μ = 0.5, 25° C., equilibration 24 hours
Procedure: as §1, §2

| Molecule | solubility at 24 h (physchem) [mg/mL] | aqueous solubility ([3]; γ-CD 0 g/100 ml) | aqueous solubility ([3]; γ-CD 1 g/100 ml) | aqueous solubility ([3]; γ-CD 2 g/100 ml) [mg/mL] | aqueous solubility ([3]; γ-CD 5 g/100 ml) [mg/mL] | aqueous solubility ([3]; γ-CD 10 g/100 ml) [mg/mL] | other results |
| --- | --- | --- | --- | --- | --- | --- | --- |
| COc1cc(C[C@H]2C(=O)OC[C@@H]2[C@H](O)c2ccc(O)c(OC)c2)ccc1O [HMR, hydroxymatairesinol] | 6.7 (≈ 17.9 mM) |  |  |  |  |  | First-order rate constant kobs for chemical degradation ([1]; with 2% γ-CD): 5.71e-05 h⁻¹; shelf-life t90% for chemical degradation ([1]; with 2% γ-CD): 1845 h; First-order rate constant kobs for chemical degradation ([1]; without γ-CD): 0.000691 h⁻¹; shelf-life t90% for chemical degradation ([1]; without γ-CD): 152 h; half-life ([1]; with 2% γ-CD): 506 days; half-life ([1]; without γ-CD): 41.8 days; increase of chemical stability by 2% γ-CD ([1]; pH 5.0, with versus without 2% γ-CD): about 12 fold; kinetics of overall degradation ([1]; presence and absence of 2% γ-CD at pH 5.0): followed first-order kinetics; effect of HP-β-CD on aqueous solubility ([2]; HP-β-CD 0-10%, pH 5.0): increases aqueous solubility; solubility at 72 h ([2]; pH 5, aqueous buffer, HP-β-CD 0 g/100 ml): 14.6 mg/mL (≈ 38.9 mM); solubility at 72 h ([2]; pH 5, aqueous with cosolvent or surfactant or cyclodextrin, HP-β-CD 1 g/100 ml): 14.9 mg/mL (≈ 39.8 mM); solubility at 72 h ([2]; pH 5, aqueous with cosolvent or surfactant or cyclodextrin, HP-β-CD 2 g/100 ml): 14.9 mg/mL (≈ 39.9 mM); solubility at 72 h ([2]; pH 5, aqueous with cosolvent or surfactant or cyclodextrin, HP-β-CD 5 g/100 ml): 20.2 mg/mL (≈ 53.8 mM); solubility at 72 h ([2]; pH 5, aqueous with cosolvent or surfactant or cyclodextrin, HP-β-CD 10 g/100 ml): 26.8 mg/mL (≈ 71.7 mM) |
| COc1cc(C[C@H]2COC(=O)[C@@H]2Cc2ccc(O)c(OC)c2)ccc1O [MR, matairesinol] | 0.49 (≈ 1.37 mM) |  |  |  |  |  |  |
| CCCC(=O)Oc1ccc(C[C@H]2COC(=O)[C@@H]2Cc2ccc(OC(=O)CCC)c(OC)c2)cc1OC [MRdiBu, matairesinol dibutyrate] |  | —* (concentration is under the detection limit of the HPLC method employed.) | —* (concentration is under the detection limit of the HPLC method employed.) | 0.00087 (≈ 0.00174 mM) | 0.00121 (≈ 0.00243 mM) | 0.00084 (≈ 0.00168 mM) |  |
| COc1cc(C[C@@H](CO)[C@H](CO)Cc2ccc(O)c(OC)c2)ccc1O [SECO, secoisolariciresinol] |  | 0.70 mg/mL (≈ 1.93 mM) | 1.74 mg/mL (≈ 4.8 mM) | 2.02 (≈ 5.57 mM) | 1.78 (≈ 4.91 mM) | 0.39 (≈ 1.08 mM) |  |
| hydroxymatairesinol diacetate [HMRdiAc] |  | 0.75 mg/mL | 1.46 mg/mL | 2.07 | 0.94 | 0.16 |  |
